The results in this text go back to patent publication US4007276A, “Triazolo isoindole derivatives” (Gruppo Lepetit, S.p.A., priority 1973, dated 1977).

Converted amounts (≈) assume the structure as drawn.

A word on the LD50: it is the dose at which mortality reaches 50%. A higher LD50 goes with a less toxic substance.

Data set [1] concerns female Sprague-Dawley rats. As to the kind of experiment: anti-fertility activity in pregnant rats. It counts as in vivo, rat (Sprague-Dawley). On the procedure: Representative experiments for assessing anti-fertility activity are carried out with female Sprague-Dawley rats weighing 200-230 g. They were mated with proven fertile males. The presence of sperm in the vagina of these animals is evidence of mating and is also considered as being day one of pregnancy. Pregnancy is confirmed at the time of autopsy by the presence of fetuses or implantation sites in the uterus. Even when animals abort the fetuses, implantation scars remain as evidence that the animal had been pregnant.
[…] These animals were autopsied on day 16 of pregnancy and the uteri were examined for evidence of pregnancy and termination of pregnancy such as implantation sites, live or resorbing fetuses and hemorrage as well as abnormalities of the uterus, placenta or fetuses. A compound is considered to be active if there is a reduction of live fetuses in at least 60% of the treated animals and the presence of implantation sites proves the animals to have been pregnant.

Data set [2] relates to female Syrian golden hamsters. As to the kind of experiment: anti-fertility activity in pregnant hamsters. It counts as in vivo, hamster (Syrian golden). Conditions: Mesocricetus auratus, sc, 5 mg/kg s.c., day 4 through day 8, autopsy day 14 of pregnancy, read-out: treated animals in which the number of live fetuses was either eliminated or severely reduced. As to the method:
The anti-fertility activity of these compounds in rats was also confirmed in other species including mice, hamsters, rabbits, dogs, monkeys and baboons. With hamsters, the same criteria and conditions are followed as for testing in rats, with the exception that the animals (female Syrian golden hamsters weighing 100 to 130 g) are treated on day 4 through day 8 with 5 mg/kg s.c. of the test compound and are autopsied on day 14 of pregnancy.

Data set [3] has as its system pain threshold of the rats. As to the kind of experiment: analgesic activity, Randall and Selitto procedure, pain threshold. In kind it is in vivo, rat. Conditions: 50 mg/kg i.p. As to the method:
The analgesic activity of representative compounds as hereinbefore described was assessed in rats by following essentially the procedure described by L. O. Randall and J. J. Selitto, Arch. Int. Pharmacodyn., 111, 409 (1957).

The test system of another data set is baboons. As to the kind of experiment: anti-fertility test in baboons. In kind it is in vivo, baboon.
The next data set deals with conditioned rats. Description: secondary conditioned avoidance response test (anti-anxiety). It counts as in vivo, rat. As to the method: The CNS depressant properties of compounds hereinbefore described were investigated according to the Irwin method and in particular the anti-anxiety effect was evaluated on the basis of the secondary conditioned avoidance response test. A specific anti-anxiety effect was evidenced by administering to conditioned rats doses of 15-60 mg/kg i.p. of representative said compounds of the invention.
Following Table II indicates the ratio of the rats which are deconditioned after administration of predetermined amounts of said representative compounds: […]

Data set [4] in a line: toxicity, LD50 i.p. in mice. Conditions: mouse, in vivo, ip.
In data set [5] the test system is Mycobacterium tubercolosis H37 Rv. Description: minimal inhibitory concentration, bacterial growth. It counts as cell-based. Conditions: H37RV, read-out: M.I.C. (minimal inhibitory concentration). As to the method: In evaluating the antimicrobial utility of representative compounds as hereinbefore described, the minimal concentration of substance inhibiting bacterial growth (M.I.C.=minimal inhibitory concentration) was determined.

The test system of data set [6] is carrageenin induced edema. Description: carrageenin induced edema of the rat hind paw (anti-inflammatory). It counts as in vivo. The conditions noted are these: rats. On the procedure: The anti-inflammatory activity of some representative compounds of formula I as hereinbefore described was evidenced by means of the carrageenin tests in rats. This test is carried out in the hind paw of the rat which paw has been inflammed by injection of carrageenin according to the technique described by C.A. Winter and coworker, Proc. Soc. Exptl. Biol. Med. III, 554 (1962). In following Table I are reported the percent inhibition of the carrageenin induced edema at the dose level indicated for each compound.
On the technique in general: The carrageenan paw model is a standard test of acute inflammation.

For `c1ccc2c(c1)Cn1nc(-c3ccc4c(c3)OCO4)nc1-2` [2-(3,4-Methylenedioxyphenyl)-5H-s-triazolo[5,1-a]isoindole], the “% Animals Aborting” value in data set [1] (1 mg/kg/day s.c.) came to 0%; in data set [1] (1.25 mg/kg/day s.c.), 25%; in data set [1] (2.5 mg/kg/day s.c.), 66.7%; in data set [1] (5 mg/kg/day s.c.), 100%. In addition, in data set [2], the responders at 5 mg/kg was not below 60%.
Take `c1cncc(-c2nc3n(n2)Cc2ccccc2-3)c1` [2-(3-pyridyl)-5H-s-triazolo[5,1-aisoindole]: in data set [3], the “increase of the pain threshold of the rats” value is reported as 70% and the toxic effect result is “without provoking any toxic effect”.
Regarding `c1ccc(COc2cccc(-c3nc4n(n3)Cc3ccccc3-4)c2)cc1` [2-(m-Benzyloxyphenyl)-5H-s-triazolo[5,1-a]isoindole], the responders at 5 mg/kg in data set [2] is not below 60%.
On to `Clc1cccc(-c2nc3n(n2)Cc2ccccc2-3)c1` [2-(m-Chlorophenyl)-5H-s-triazolo[5,1-a]isoindole], for which the responders at 5 mg/kg in data set [2] is not below 60%.
For `CN(C)c1cccc(-c2nc3n(n2)Cc2ccccc2-3)c1` [2-(m-Dimethylaminophenyl)-5H-s-triazolo[5,1-a]isoindole], the responders at 5 mg/kg in data set [2] was not below 60%.
Consider `CCOc1cccc(-c2nc3n(n2)Cc2ccccc2-3)c1` [2-(m-Ethoxyphenyl)-5H-s-triazolo[5,1-a]isoindole], for which the “% Animals Aborting” value in data set [1] (1 mg/kg/day s.c.) is on record as 33.3%; in data set [1] (1.25 mg/kg/day s.c.), 62.5%; in data set [1] (2.5 mg/kg/day s.c.) it was 85.7%; in data set [1] (5 mg/kg/day s.c.), 100%. Besides, the responders at 5 mg/kg in data set [2] was not below 60%.
For the compound `Fc1cccc(-c2nc3n(n2)Cc2ccccc2-3)c1` [2-(m-Fluorophenyl)-5H-s-triazolo[5,1-a]isoindole], the responders at 5 mg/kg in data set [2] was not below 60%.
On to `Oc1cccc(-c2nc3n(n2)Cc2ccccc2-3)c1` [2-(m-Hydroxyphenyl)-5H-s-triazolo[5,1-a]isoindole], for which the responders at 5 mg/kg in data set [2] is not below 60%.
In the case of `COc1cccc(-c2nc3n(n2)Cc2ccccc2-3)c1` [2-(m-Methoxyphenyl)-5H-s-triazolo[5,1-a]isoindole], the “% Animals Aborting” value is listed as 0% in data set [1] (0.155 mg/kg/day s.c.); 0% in data set [1] (0.31 mg/kg/day s.c.); 38.5% in data set [1] (0.62 mg/kg/day s.c.); 70.8% in data set [1] (1.25 mg/kg/day s.c.); 100% in data set [1] (2.5 mg/kg/day s.c.); 100% in data set [1] (5 mg/kg/day s.c.). Besides, the responders at 5 mg/kg in data set [2] was not below 60%. In addition, the induced abortion entry in the data set on baboons is recorded as “induced abortion in every animal studied”.
For `CCCOc1cccc(-c2nc3n(n2)Cc2ccccc2-3)c1` [2-(m-Propoxyphenyl)-5H-s-triazolo[5,1-a]isoindole], the “% Animals Aborting” value in data set [1] (1 mg/kg/day s.c.) turned out to be 20%; in data set [1] (1.25 mg/kg/day s.c.), 60%; in data set [1] (2.5 mg/kg/day s.c.), 77.8%; in data set [1] (5 mg/kg/day s.c.), 100%. Besides, the responders at 5 mg/kg in data set [2] is not below 60%.
On to `Cc1cccc(-c2nc3n(n2)Cc2ccccc2-3)c1` [2-(m-Tolyl)-5H-s-triazolo[5,1-a]isoindole], for which the responders at 5 mg/kg in data set [2] was not below 60%.
Same read-out and setting: to `FC(F)(F)c1cccc(-c2nc3n(n2)Cc2ccccc2-3)c1` [2-(m-Trifluoromethylphenyl)-5H-s-triazolo[5,1-a]isoindole] belongs not below 60%.
Still for that read-out and setting: to `Clc1ccc(-c2nc3n(n2)Cc2ccccc2-3)cc1` [2-(p-Chlorophenyl)-5H-s-triazolo[5,1-a]isoindole] belongs not below 60%.
The same measure, in the same setting: for `Fc1ccc(-c2nc3n(n2)Cc2ccccc2-3)cc1` [2-(p-Fluorophenyl)-5H-s-triazolo[5,1-a]isoindole] the value was not below 60%.
For `COc1ccc(-c2nc3n(n2)Cc2ccccc2-3)cc1` [2-(p-Methoxyphenyl)-5H-s-triazolo[5,1-a]isoindole], the responders at 5 mg/kg in data set [2] was not below 60%.
Still for that read-out and setting: for `Cc1ccc(-c2nc3n(n2)Cc2ccccc2-3)cc1` [2-(p-Tolyl)-5H-s-triazolo[5,1-a]isoindole] the value was not below 60%.
For `Nc1nc2n(n1)Cc1ccccc1-2` [2-Amino-5H-s-triazolo[5,1-a]isoindole], the Deconditioned / treated with conditioned rats (30 mg/kg i.p.) is 8/10. For the same compound, the LD50 in data set [4] worked out at 600 mg/kg.
`Cc1nc2n(n1)Cc1ccccc1-2` [2-Methyl-5H-s-triazolo[5,1-a]isoindole]: the Deconditioned / treated in the data set on conditioned rats (15 mg/kg i.p.) is 6/10; in the data set with conditioned rats (30 mg/kg i.p.) it was 7/10. In data set [4], this compound came in with an LD50 of more than 400 mg/kg.
With `c1ccc(-c2nc3n(n2)Cc2ccccc2-3)cc1` [2-Phenyl-5H-s-triazolo[5,1-a]isoindole], the “% Animals Aborting” value is 20% in data set [1] (1.25 mg/kg/day s.c.) and 80% in data set [1] (2.5 mg/kg/day s.c.). Also, the responders at 5 mg/kg in data set [2] was not below 60%.
Turning to `CCOC(=O)NC(=S)Nc1nc2n(n1)Cc1ccccc1-2` [2-carbethoxythioureido-5H-s-triazolo[5,1-a]isoindole], the MIC in data set [5] is 5 µg/mL (≈ 16.5 µM).
For `COc1cccc(-c2nc3n(n2)Cc2cc(OC)c(OC)cc2-3)c1` [7,8-Dimethoxy-2-(m-methoxyphenyl)-5H-s-triazolo[5,1-a]isoindole], in data set [2], the responders at 5 mg/kg is not below 60%.
On the same count and under the same terms, for `COc1cccc(-c2nc3n(n2)Cc2cc(Cl)ccc2-3)c1` [7-Chloro-2-(m-methoxyphenyl)-5H-s-triazolo[5,1-a]isoindole] the value was not below 60%; for `Clc1ccc2c(c1)Cn1nc(-c3ccccc3)nc1-2` [7-Chloro-2-phenyl-5H-s-triazolo[5,1-a]isoindole], not below 60%.
In the case of `COc1cccc(-c2nc3n(n2)Cc2cc(OC)ccc2-3)c1` [7-Methoxy-2-(m-methoxyphenyl)-5H-s-triazolo[5,1-a]isoindole], the responders at 5 mg/kg in data set [2] was not below 60%.
Same read-out and setting: for `COc1cccc(-c2nc3n(n2)Cc2ccc(Cl)cc2-3)c1` [8-Chloro-2-(m-methoxyphenyl)-5H-s-triazolo[5,1-a]isoindole] the value was not below 60%.
Same read-out and setting: for `Clc1ccc2c(c1)-c1nc(-c3ccccc3)nn1C2` [8-Chloro-2-phenyl-5H-s-triazolo[5,1-a]isoindole] the value was not below 60%.
With `COc1cccc(-c2nc3n(n2)Cc2ccc(OC)cc2-3)c1` [8-Methoxy-2-(m-methoxyphenyl)-5H-s-triazolo[5,1-a]isoindole], the “% Animals Aborting” value in data set [1] (2.5 mg/kg/day s.c.) was found to be 57.1%; in data set [1] (5 mg/kg/day s.c.), 100%. Further, the responders at 5 mg/kg in data set [2] was not below 60%.
Turning to `COc1ccc2c(c1)-c1nc(-c3ccccc3)nn1C2` [8-Methoxy-2-phenyl-5H-s-triazolo[5,1-a]isoindole], the responders at 5 mg/kg in data set [2] is not below 60%.
`CCCCc1nc2n(n1)Cc1ccccc1-2` [a, 2-n-butyl-5H-s-triazolo[5,1-a]isoindole]: the “Per Cent Inhibition of the Edema” value in data set [6] (100 mg/Kg p.o.) amounted to 28 Per Cent.
As to `CC(=O)Nc1nc2n(n1)Cc1ccccc1-2` [c, 2-acetamido-5H-s-triazolo[5,1-a]isoindole], the “Per Cent Inhibition of the Edema” value in data set [6] (50 mg/Kg p.o.) is on record as 35 Per Cent; in data set [6] (100 mg/Kg p.o.), 54 Per Cent.
`CC(=O)N(C(C)=O)c1nc2n(n1)Cc1ccccc1-2` [d, 2-diacetylamino-5H-s-triazolo[5,1-a]isoindole]: the “Per Cent Inhibition of the Edema” value in data set [6] (50 mg/Kg p.o.) came out at 34 Per Cent; in data set [6] (100 mg/Kg p.o.), 53 Per Cent.
On to `NC(=O)Nc1nc2n(n1)Cc1ccccc1-2` [e, 2-ureido-5H-s-triazolo[5,1-a]isoindole], for which the “Per Cent Inhibition of the Edema” value in data set [6] (100 mg/Kg p.o.) turned out to be 29 Per Cent.
Same read-out and setting: for `O=C(Nc1nc2n(n1)Cc1ccccc1-2)c1ccccc1` [f, 2-benzoylamino-5H-s-triazolo[5,1-a]isoindole] the value was 28 Per Cent.
For `Sc1nc2n(n1)Cc1ccccc1-2` [g, 2-sulfhydryl-5H-s-triazolo[5,1-a]isoindole], the results for the “Per Cent Inhibition of the Edema” value in data set [6] (50 mg/Kg p.o.) and in data set [6] (100 mg/Kg p.o.) were 39 Per Cent and 49 Per Cent, respectively.
